Results on 1 compound are retold here after ChEMBL document CHEMBL5046244, “Targeted Covalent Inhibition of Small CTD Phosphatase 1 to Promote the Degradation of the REST Transcription Factor in Human Cells” (J Med Chem, 2022).

The nature of test [1]: Downregulation of REST protein expression in HEK293 cells at 10 uM incubated for 6 hrs by immunoblot analysis relative to control. The format is functional, Homo sapiens. On the technique in general: A western blot detects proteins with antibodies after separation by electrophoresis.
Test [2] can be described thus: Downregulation of REST protein expression in HEK293 cells at 10 uM incubated for 12 hrs by immunoblot analysis relative to control. It is filed as functional, Homo sapiens.
For test [3], the species on record is Homo sapiens. Nature of the test: Covalent binding affinity to human SCP1 C181A mutant assessed as covalent adduct formation incubated for overnight by MALDI-TOF analysis.
The species entered for test [4] is Homo sapiens. Nature of the test: Covalent binding affinity to human SCP1 C92 mutant assessed as covalent adduct formation incubated for overnight by MALDI-TOF analysis.
In test [5] the target is T1, Receptor-type tyrosine-protein phosphatase C (Homo sapiens) (UniProt P08575).
T1 sequence (whole entry): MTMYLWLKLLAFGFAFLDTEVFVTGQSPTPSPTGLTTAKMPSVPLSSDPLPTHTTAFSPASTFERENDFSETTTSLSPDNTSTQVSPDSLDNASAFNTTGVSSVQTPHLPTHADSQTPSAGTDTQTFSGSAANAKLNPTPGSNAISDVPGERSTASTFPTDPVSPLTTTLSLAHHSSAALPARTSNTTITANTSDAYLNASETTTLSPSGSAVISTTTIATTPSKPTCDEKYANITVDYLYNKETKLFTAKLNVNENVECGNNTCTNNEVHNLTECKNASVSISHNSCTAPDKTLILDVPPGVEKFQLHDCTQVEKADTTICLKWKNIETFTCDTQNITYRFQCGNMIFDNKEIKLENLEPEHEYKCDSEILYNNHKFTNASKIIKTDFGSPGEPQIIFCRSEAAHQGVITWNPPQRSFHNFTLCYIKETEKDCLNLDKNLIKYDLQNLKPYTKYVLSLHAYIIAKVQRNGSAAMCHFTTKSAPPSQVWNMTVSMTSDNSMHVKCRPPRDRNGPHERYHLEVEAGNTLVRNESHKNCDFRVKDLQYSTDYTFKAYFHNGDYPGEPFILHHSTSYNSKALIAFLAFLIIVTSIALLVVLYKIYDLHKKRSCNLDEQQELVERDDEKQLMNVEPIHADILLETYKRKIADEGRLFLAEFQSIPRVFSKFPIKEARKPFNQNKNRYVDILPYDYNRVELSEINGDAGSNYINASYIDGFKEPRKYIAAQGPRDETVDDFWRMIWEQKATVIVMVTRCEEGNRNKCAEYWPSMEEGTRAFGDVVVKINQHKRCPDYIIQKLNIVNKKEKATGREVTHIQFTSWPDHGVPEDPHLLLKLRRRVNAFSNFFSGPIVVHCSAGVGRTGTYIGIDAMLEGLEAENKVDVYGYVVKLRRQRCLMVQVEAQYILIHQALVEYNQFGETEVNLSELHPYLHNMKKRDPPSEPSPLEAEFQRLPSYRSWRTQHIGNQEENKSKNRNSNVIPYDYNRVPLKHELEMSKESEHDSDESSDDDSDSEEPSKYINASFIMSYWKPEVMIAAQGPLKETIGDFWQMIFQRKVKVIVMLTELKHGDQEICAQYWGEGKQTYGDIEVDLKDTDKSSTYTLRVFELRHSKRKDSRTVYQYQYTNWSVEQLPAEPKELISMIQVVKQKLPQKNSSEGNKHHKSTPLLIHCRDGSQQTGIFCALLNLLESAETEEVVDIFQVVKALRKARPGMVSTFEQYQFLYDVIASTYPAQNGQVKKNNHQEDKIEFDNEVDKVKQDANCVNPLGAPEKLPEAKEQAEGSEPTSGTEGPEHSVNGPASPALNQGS
Nature of the test: Inhibition of CD45 (unknown origin) at 25 to 30 uM. Conditions: dose 25-30 µM.

Test [6] addresses Dual specificity protein phosphatase 3 (Homo sapiens) (UniProt P51452). Nature of the test: Inhibition of VHR (unknown origin) at 25 to 30 uM. Conditions: dose 25-30 µM.
Test [7] concerns Schizosaccharomyces pombe. Nature of the test: Inhibition of Schizosaccharomyces pombe wild type FCP1 (148 to 641 residues) assessed as reduction in enzymatic activity using pNPP as substrate at 100 uM measured up to 18 hrs by absorbance based assay relative to control. Conditions: time hrs <=18.
Test [8] in a line: Downregulation of REST protein expression in HEK293 cells incubated for 3 days with media replenishment for every 24 hrs by immunoblot analysis. Conditions: Homo sapiens. The format is functional, cell-based.
A short description of test [9]: Upregulation of DYRK1a mRNA expression in HEK293 cells assessed as fold increase by qRT-PCR analysis. It is filed as functional, Homo sapiens. In general terms: In qPCR the cycle at which signal appears reflects the starting amount.
Test [10] can be described thus: Upregulation of CELSR3 mRNA expression in HEK293 cells assessed as fold increase by qRT-PCR analysis. It is filed as functional, Homo sapiens.
Test [11] concerns the target T2, Tyrosine-protein phosphatase non-receptor type 11 (Homo sapiens) (UniProt Q06124).
T2 sequence (whole entry): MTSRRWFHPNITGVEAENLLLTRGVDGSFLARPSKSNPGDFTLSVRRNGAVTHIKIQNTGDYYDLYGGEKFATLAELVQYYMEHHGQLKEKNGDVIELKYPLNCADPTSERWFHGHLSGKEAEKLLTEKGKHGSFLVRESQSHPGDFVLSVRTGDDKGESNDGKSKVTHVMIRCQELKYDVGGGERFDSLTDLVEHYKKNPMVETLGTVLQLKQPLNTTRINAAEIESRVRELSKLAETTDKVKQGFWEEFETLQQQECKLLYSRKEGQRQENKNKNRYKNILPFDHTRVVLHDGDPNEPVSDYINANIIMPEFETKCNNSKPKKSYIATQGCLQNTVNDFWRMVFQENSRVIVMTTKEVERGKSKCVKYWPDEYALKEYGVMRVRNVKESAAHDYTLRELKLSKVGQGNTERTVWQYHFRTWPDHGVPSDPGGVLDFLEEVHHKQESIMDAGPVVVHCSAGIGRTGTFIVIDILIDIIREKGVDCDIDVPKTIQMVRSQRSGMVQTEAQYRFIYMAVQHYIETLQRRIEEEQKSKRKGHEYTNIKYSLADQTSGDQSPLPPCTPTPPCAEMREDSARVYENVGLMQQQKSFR
As to the kind of experiment: Inhibition of SHP2 (unknown origin) at 25 to 30 uM. Conditions: dose 25-30 µM.

Active and inactive are the calls of the source. The calls are words filed in the database; no cut-off is given here.

Dual specificity protein phosphatase 3 (Homo sapiens), sequence (P51452 whole entry, looked up, the tested form may be a part): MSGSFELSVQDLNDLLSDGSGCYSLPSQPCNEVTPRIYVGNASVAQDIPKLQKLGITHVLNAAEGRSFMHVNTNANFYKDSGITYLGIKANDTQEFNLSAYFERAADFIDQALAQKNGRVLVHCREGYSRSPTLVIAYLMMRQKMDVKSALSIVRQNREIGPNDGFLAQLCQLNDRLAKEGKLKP

One may read the inhibition as the share of the control response that was lost under treatment. The EC50 is the midpoint of the concentration-response curve. Regarding `O=C(NCCCNS(=O)(=O)c1ccc(OC(F)(F)F)cc1)C1=Cc2ccccc2S1(=O)=O`, the results for the Activity in test [1] and in test [2] were 60% and 20%, respectively. For the same compound, the result in the test filed under Homo sapiens [3] was inactive. For the same compound, the outcome in the test filed under Homo sapiens [4] was Active. In addition, the inhibition entry in test [5], in [6] and in [11] was “inactive” throughout. The inhibition in test [7] is 50%. In test [8], this compound returned an EC50 of 1.5 µM. Besides, the “fold change (FC)” value in test [9] and in [10] was 2 in each case.
